Counter-ions that a name gives are not always drawn. Bounds are passed on as bounds.

The experiment addresses T1, Human V1b receptor (Homo sapiens, UniProt P47901).
T1 sequence (P47901 1-424): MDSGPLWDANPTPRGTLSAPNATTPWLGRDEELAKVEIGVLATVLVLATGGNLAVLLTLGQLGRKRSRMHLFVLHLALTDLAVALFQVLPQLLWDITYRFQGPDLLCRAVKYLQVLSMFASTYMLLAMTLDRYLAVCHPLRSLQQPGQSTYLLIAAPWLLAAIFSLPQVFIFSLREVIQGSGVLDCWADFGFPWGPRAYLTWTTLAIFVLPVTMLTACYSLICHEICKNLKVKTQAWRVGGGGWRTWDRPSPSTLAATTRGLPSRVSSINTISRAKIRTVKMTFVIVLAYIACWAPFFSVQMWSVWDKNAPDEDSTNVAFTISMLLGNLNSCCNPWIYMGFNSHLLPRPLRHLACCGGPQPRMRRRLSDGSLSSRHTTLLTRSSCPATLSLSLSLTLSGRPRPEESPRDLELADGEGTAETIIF
Kind of experiment: Binding test for V1b receptor ([3H]AVP displacement, crude membrane preparation). Details: expressed in transfected cells; host or cells: 293FT cells (Invitrogen), transient expression; crude membrane preparation. Conditions: [3H]AVP 0.4 to 1 nmol/L; membranes of 293FT cells transiently expressing human V1b receptor; room temperature, 60 minutes. The procedure:
Binding Test for V1b Receptor
Human V1b receptor was transiently expressed in 293FT cells (Invitrogen). The cells were collected and were homogenated in a 15 mmol/L tris-hydrochloric acid buffer (pH 7.4, containing 2 mmol/L magnesium chloride, 0.3 mmol/L ethylenediaminetetracetic acid, and 1 mmol/L glycol ether diaminetetraacetic acid). The resulting homogenate was centrifuged at 50,000×g at 4° C. for 20 minutes. The precipitate was resuspended in a 75 mmol/L tris-hydrochloric acid buffer (pH 7.4, containing 12.5 mmol/L magnesium chloride, 0.3 mmol/L ethylenediaminetetracetic acid, 1 mmol/L glycol ether diamine tetraacetic acid, and 250 mmol/L sucrose) to give a crude membrane preparation, which was stored at −80° C. until the binding test. In the binding test, the crude membrane preparation was diluted with a 50 mmol/L tris-hydrochloric acid buffer (pH 7.4, containing 10 mmol/L magnesium chloride and 0.1% bovine serum albumin), and test compound was serially diluted with DMSO. The diluted crude membrane preparation was incubated with each test compound (final concentration of 0.01 nmol/L to 1 μmol/L) and [^3H]AVP (final concentration: 0.4 to 1 nmol/L) at room temperature for 60 minutes. After the incubation, the mixture was suction filtered through a GF/C filter pretreated with 0.3% polyethyleneimine. The GF/C filter was dried, and a scintillator was added thereto. The radioactivity remaining on the filter was measured using TopCount (PerkinElmer Inc.). The radioactivity in the presence of 10 μmol/L of unlabeled AVP was defined as 0%, and the radioactivity in the absence of unlabeled AVP was defined as 100%. A dose-response curve was plotted from radioactivities in the presence of a test compound at various concentrations, and the 50% inhibitory concentration (IC50 value) of the compound was calculated.
As to `COc1cc(-c2nn(-c3ccc(CCN4CC=CCC4)cc3)c(=O)n2CC(=O)NC(C)C)ccc1F` [Ca-7, 2-[1-{4-[2-(3,6-Dihydropyridin-1(2H)-yl)ethyl]phenyl}-3-(4-fluoro-3-methoxyphenyl)-5-oxo-1,5-dihydro-4H-1,2,4-triazol-4-yl]-N-(propan-2-yl)acetamide], the IC50 was 10 to 100 nM.

Take `COc1cc(-c2nn(-c3ccc(CCN4CCSCC4)cc3)c(=O)n2CC(=O)NC(C)C)ccc1F` [Ca-8, 2-[3-(4-Fluoro-3-methoxyphenyl)-5-oxo-1-{4-[2-(thiomorpholin-4-yl)ethyl]phenyl}-1,5-dihydro-4H-1,2,4-triazol-4-yl]-N-(propan-2-yl)acetamide]: the IC50 was under 10 nM.

`COc1cc(-c2nn(-c3ccc(CCN4CCC(C)CC4)cc3)c(=O)n2CC(=O)NC(C)C)ccc1F` [Ca-9, 2-[3-(4-Fluoro-3-methoxyphenyl)-1-{4-[2-(4-methylpiperidin-1-yl)ethyl]phenyl}-5-oxo-1,5-dihydro-4H-1,2,4-triazol-4-yl]-N-(propan-2-yl)acetamide] showed an IC50 of 10 to 100 nM.

As for `COc1cc(-c2nn(-c3ccc(CCN4CCC(C#N)CC4)cc3)c(=O)n2CC(=O)NC(C)C)ccc1F` [Ca-10, 2-[1-{4-[2-(4-Cyanopiperidin-1-yl)ethyl]phenyl}-3-(4-fluoro-3-methoxyphenyl)-5-oxo-1,5-dihydro-4H-1,2,4-triazol-4-yl]-N-(propan-2-yl)acetamide], the IC50 was in the range of 100 to 1000 nM.

With `COc1cc(-c2nn(-c3ccc(CCN4CCCC(OC)C4)cc3)c(=O)n2CC(=O)NC(C)C)ccc1F` (stereo not shown) [Ca-11, 2-[3-(4-Fluoro-3-methoxyphenyl)-1-{4-[2-(3-methoxypiperidin-1-yl)ethyl]phenyl}-5-oxo-1,5-dihydro-4H-1,2,4-triazol-4-yl]-N-(propan-2-yl)acetamide], the half-maximal inhibitory concentration (IC50) lay within 10 to 100 nM.

`CCCC1CCN(CCc2ccc(-n3nc(-c4ccc(F)c(OC)c4)n(CC(=O)NC(C)C)c3=O)cc2)CC1` [Ca-12, 2-[3-(4-Fluoro-3-methoxyphenyl)-5-oxo-1-{4-[2-(4-propylpiperidin-1-yl)ethyl]phenyl}-1,5-dihydro-4H-1,2,4-triazol-4-yl]-N-(propan-2-1)acetamide] returned an IC50 of 100 to 1000 nM.

Molecule `COc1cc(-c2nn(-c3ccc(CCN4CCC(C(N)=O)CC4)cc3)c(=O)n2CC(=O)NC(C)C)ccc1F` [Ca-13, 1-[2-(4-{3-(4-Fluoro-3-methoxyphenyl)-5-oxo-4-[2-oxo-2-(propan-2-ylamino)ethyl]-4,5-dihydro-1H-1,2,4-triazol-1-yl}phenyl)ethyl]piperidine 4-carboxamide] yielded a 50% inhibitory concentration (IC50) of 100 to 1000 nM.

Molecule `COc1cc(-c2nn(-c3ccc(CCN4CCC(N(C)C)CC4)cc3)c(=O)n2CC(=O)NC(C)C)ccc1F` [Ca-14, 2-[1-(4-{2-[4-(Dimethylamino)piperidin-1-yl]ethyl}phenyl)-3-(4-fluoro-3-methoxyphenyl)-5-oxo-1,5-dihydro-4H-1,2,4-triazol-4-yl]-N-(propan-2-yl)acetamide] showed an IC50 of 100 to 1000 nM.

Regarding `COc1cc(-c2nn(-c3ccc(CCN4CCC5CCCCC5C4)cc3)c(=O)n2CC(=O)NC(C)C)ccc1F` (stereo not shown) [Ca-15, 2-[3-(4-Fluoro-3-methoxyphenyl)-1-{4-[2-(octahydroisoquinolin-2(1H)-yl)ethyl]phenyl}-5-oxo-1,5-dihydro-4H-1,2,4-triazol-4-yl]-N-(propan-2-yl)acetamide], the IC50 was in the range of 10 to 100 nM.

Take `COc1cc(-c2nn(-c3ccc(CCN4CCC(F)CC4)cc3)c(=O)n2CC(=O)NC(C)C)ccc1F` [Ca-16, 2-[3-(4-Fluoro-3-methoxyphenyl)-1-{4-[2-(4-fluoropiperidin-1-yl)ethyl]phenyl}-5-oxo-1,5-dihydro-4H-1,2,4-triazol-4-yl]-N-(propan-2-yl)acetamide trifluoroacetate]: the IC50 is 10 to 100 nM.

The molecule `COc1cc(-c2nn(-c3ccc(CCN4CCC(NC(C)=O)CC4)cc3)c(=O)n2CC(=O)NC(C)C)ccc1F` [Ca-17, 2-[1-(4-{2-[4-(Acetylamino)piperidin-1-yl]ethyl}phenyl)-3-(4-fluoro-3-methoxyphenyl)-5-oxo-1,5-dihydro-4H-1,2,4-triazol-4-yl]-N-(propan-2-yl)acetamide] registered an IC50 of 100 to 1000 nM.

Molecule `COc1cc(-c2nn(-c3ccc(CCN4CCC(F)(F)CC4)cc3)c(=O)n2CC(=O)NC(C)C)ccc1F` [Ca-18, 2-[1-{4-[2-(4,4-Difluoropiperidin-1-yl)ethyl]phenyl}-3-(4-fluoro-3-methoxyphenyl)-5-oxo-1,5-dihydro-4H-1,2,4-triazol-4-yl]-N-(propan-2-yl)acetamide trifluoroacetate] displayed an IC50 of 10 to 100 nM.

Regarding `COc1cc(-c2nn(-c3ccc(CCN4CCC(C(F)(F)F)CC4)cc3)c(=O)n2CC(=O)NC(C)C)ccc1F` [Ca-19, 2-[3-(4-Fluoro-3-methoxyphenyl)-5-oxo-1-(4-{2-[4-(trifluoromethyl)piperidin-1-yl]ethyl}phenyl)-1,5-dihydro-4H-1,2,4-triazol-4-yl]-N-(propan-2-yl)acetamide trifluoroacetate], the IC50 lay in the range of 100 to 1000 nM.

`COc1cc(-c2nn(-c3ccc(CCN4C[C@@H](C)O[C@@H](C)C4)cc3)c(=O)n2CC(=O)NC(C)C)ccc1F` [Ca-20, 2-[1-(4-{2-[(2R,6S)-2,6-Dimethylmorpholin-4-yl]ethyl}phenyl)-3-(4-fluoro-3-methoxyphenyl)-5-oxo-1,5-dihydro-4H-1,2,4-triazol-4-yl]-N-(propan-2-yl)acetamide] came in with an IC50 of 10 to 100 nM.

The molecule `COc1cc(-c2nn(-c3ccc(CCN4C(C)COCC4C)cc3)c(=O)n2CC(=O)NC(C)C)ccc1F` (stereo not shown) [Ca-21, 2-[1-{4-[2-(3,5-Dimethylmorpholin-4-yl)ethyl]phenyl}-3-(4-fluoro-3-methoxyphenyl)-5-oxo-1,5-dihydro-4H-1,2,4-triazol-4-yl]-N-(propan-2-yl)acetamide trifluoroacetate] yielded an IC50 of 10 to 100 nM.

Consider `COc1cc(-c2nn(-c3ccc(CCN4CCOCC4C)cc3)c(=O)n2CC(=O)NC(C)C)ccc1F` (stereo not shown) [Ca-22, 2-[3-(4-Fluoro-3-methoxyphenyl)-1-{4-[2-(3-methylmorpholin-4-yl)ethyl]phenyl}-5-oxo-1,5-dihydro-4H-1,2,4-triazol-4-yl]-N-(propan-2-yl)acetamide], for which the IC50 is 10 to 100 nM.

In turn, `CCC1COCCN1CCc1ccc(-n2nc(-c3ccc(F)c(OC)c3)n(CC(=O)NC(C)C)c2=O)cc1` (stereo not shown) [Ca-23, 2-[1-{4-[2-(3-Ethylmorpholin-4-yl)ethyl]phenyl}-3-(4-fluoro-3-methoxyphenyl)-5-oxo-1,5-dihydro-4H-1,2,4-triazol-4-yl]-N-(propan-2-yl)acetamide] showed an IC50 of 10 to 100 nM.

In the case of `COc1cc(-c2nn(-c3ccc(CCN4CCCC4)cc3)c(=O)n2CC(=O)NC(C)C)ccc1F` [Ca-24, 2-[3-(4-Fluoro-3-methoxyphenyl)-5-oxo-1-{4-[2-(pyrrolidin-1-yl)ethyl]phenyl}-1,5-dihydro-4H-1,2,4-triazol-4-yl]-N-(propan-2-yl)acetamide formate], the IC50 fell in the range of 10 to 100 nM.

`COc1cc(-c2nn(-c3ccc(CCN4CCN(C)CC4)cc3)c(=O)n2CC(=O)NC(C)C)ccc1F` [Ca-25, 2-[3-(4-Fluoro-3-methoxyphenyl)-1-{4-[2-(4-methylpiperazin-1-yl)ethyl]phenyl}-5-oxo-1,5-dihydro-4H-1,2,4-triazol-4-yl]-N-(propan-2-yl)acetamide trifluoroacetate] gave a half-inhibitory concentration (IC50) of 100 to 1000 nM.

The values are drawn from patent US9193695B2, “1, 2, 4-triazolone derivative and use thereof as an antagonist on the arginine-vasopressin 1B receptor” (TAISHO PHARMACEUTICAL CO., LTD., priority 2010, dated 2015).
